Data from US8143409B2, “Crystalline form of rabeprazole sodium” (Dipharma Francis S.R.L., priority 2006, dated 2012).

What was measured:
[1] = Thermodynamic stability by comparing DSC thermograms; assay type: physicochemical; conditions: compared with known hydrate forms α and β, by comparing the respective DSC thermograms
Experimental: DSC thermograms were recorded with a Mettler-Toledo differential scansion calorimeter DSC 822, under the following operative conditions: aluminium capsules, 30-400° C. range with increase of 10° C./min, under nitrogen as purging gas (80 ml/min).

[2] = Stability of the crystalline hydrate form at room temperature; assay type: physicochemical; conditions: compared with hydrated crystalline forms alpha and beta
[3] = isomorphic forms of EP 1674463; makes handling and storing easy; cited from earlier work

SMILES | thermodynamic stability [1] | stability [2] | hygroscopicity [3]
COCCCOc1ccnc(C[S+]([O-])c2nc3ccccc3[n-]2)c1C.[Na+] (stereo not drawn) [Form γ, 2-[[[4-(3-methoxypropoxy)-3-methyl-2-pyridinyl]-methyl]sulfinyl]-1H-benzylimidazole sodium salt] | thermodynamically more stable than the known hydrate forms α and β | more stable at room temperature | 
COCCCOc1ccnc(C[S+]([O-])c2nc3ccccc3[n-]2)c1C.[Na+] (stereo not drawn) [alpha] |  |  | low hygroscopicity
